Test results published in patent US6972296B2, “Carboxylic acid derivatives that inhibit the binding of integrins to their receptors” (Encysive Pharmaceuticals Inc., priority 1999, dated 2005).

Biological target: T1, α4β1 integrin (Homo sapiens, UniProt P05556+P13612)
T1 construct: endogenous in cells; host or cells: Ramos cells
Experiment: Adhesion of calcein-labeled Ramos cells to CS1 (fibronectin) peptide conjugated ovalbumin
Type: cell-based
Details: Ramos cell adhesion to CS1 conjugated ovalbumin
Method in brief: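 Calcein AM-labelled Ramos cells (2.5×10^5/well) with compound, up to 100 μM, added to plates coated with CS1 peptide–ovalbumin (0.5 μg/ml) and blocked with 3% BSA. Binding buffer TBS pH 7.5 with 1 mM each MgCl2, CaCl2, MnCl2; 30 min, 37 °C. After washes, adherent cells lysed and read fluorometrically; […].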

[1] = Table 5, dose required to give 50% inhibition
[2] = Table 7, dose required to give 50% inhibition

T1 sequence (P13612 34-1032): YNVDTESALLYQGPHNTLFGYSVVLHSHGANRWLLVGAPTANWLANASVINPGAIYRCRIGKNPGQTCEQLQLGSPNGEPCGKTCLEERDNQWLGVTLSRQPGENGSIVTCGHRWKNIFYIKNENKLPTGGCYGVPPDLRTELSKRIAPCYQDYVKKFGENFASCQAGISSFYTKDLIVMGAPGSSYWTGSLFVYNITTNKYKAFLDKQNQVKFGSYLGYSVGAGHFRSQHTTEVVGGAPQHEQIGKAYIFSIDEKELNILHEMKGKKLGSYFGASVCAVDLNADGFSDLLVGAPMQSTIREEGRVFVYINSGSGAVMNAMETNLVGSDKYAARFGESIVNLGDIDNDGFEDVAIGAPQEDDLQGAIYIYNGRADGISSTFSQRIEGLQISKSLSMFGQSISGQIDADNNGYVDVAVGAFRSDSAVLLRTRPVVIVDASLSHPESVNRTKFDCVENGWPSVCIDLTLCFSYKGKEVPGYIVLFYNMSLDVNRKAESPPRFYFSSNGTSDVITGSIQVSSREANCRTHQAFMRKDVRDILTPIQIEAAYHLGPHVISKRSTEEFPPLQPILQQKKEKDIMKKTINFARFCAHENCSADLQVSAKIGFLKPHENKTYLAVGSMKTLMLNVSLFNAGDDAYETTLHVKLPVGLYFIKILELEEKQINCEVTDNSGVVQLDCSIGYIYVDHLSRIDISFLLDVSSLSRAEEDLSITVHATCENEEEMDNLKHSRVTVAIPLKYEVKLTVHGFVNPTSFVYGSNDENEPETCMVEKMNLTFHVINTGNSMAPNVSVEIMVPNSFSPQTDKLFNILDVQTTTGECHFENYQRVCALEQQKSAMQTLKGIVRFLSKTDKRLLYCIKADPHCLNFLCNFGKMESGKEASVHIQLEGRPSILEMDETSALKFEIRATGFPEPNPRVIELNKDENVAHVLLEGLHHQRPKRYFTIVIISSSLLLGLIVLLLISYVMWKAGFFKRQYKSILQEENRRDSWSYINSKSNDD
T1 sequence (P05556 21-798): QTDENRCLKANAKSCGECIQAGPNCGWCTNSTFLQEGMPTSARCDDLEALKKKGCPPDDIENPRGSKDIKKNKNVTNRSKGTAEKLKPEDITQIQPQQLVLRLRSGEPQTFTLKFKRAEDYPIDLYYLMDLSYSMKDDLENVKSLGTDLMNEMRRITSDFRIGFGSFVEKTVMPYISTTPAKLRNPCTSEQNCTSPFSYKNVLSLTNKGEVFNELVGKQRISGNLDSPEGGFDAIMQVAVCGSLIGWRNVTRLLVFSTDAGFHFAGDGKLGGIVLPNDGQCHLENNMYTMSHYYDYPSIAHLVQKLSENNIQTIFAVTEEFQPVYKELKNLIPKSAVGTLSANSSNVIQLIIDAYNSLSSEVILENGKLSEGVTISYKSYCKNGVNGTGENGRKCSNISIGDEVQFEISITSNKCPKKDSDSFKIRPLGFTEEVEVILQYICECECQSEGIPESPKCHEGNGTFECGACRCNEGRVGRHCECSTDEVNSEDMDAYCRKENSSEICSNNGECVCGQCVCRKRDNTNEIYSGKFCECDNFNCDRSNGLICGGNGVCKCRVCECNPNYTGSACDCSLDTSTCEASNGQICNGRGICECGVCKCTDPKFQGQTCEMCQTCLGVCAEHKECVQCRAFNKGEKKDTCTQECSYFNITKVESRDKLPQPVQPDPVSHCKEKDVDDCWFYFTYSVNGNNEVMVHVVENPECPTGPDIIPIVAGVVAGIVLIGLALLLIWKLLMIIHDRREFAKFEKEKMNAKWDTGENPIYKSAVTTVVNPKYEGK

Row | Compound | IC50 [1] [µM] | IC50 [2] [µM] | other results
1 | COc1cccc([C@H](CC(=O)O)NC(=O)Nc2cccn(Cc3cccs3)c2=O)c1 | – | – | IC50 (Table 4, 30 minutes at 37° C.): 1.4 µM
2 | CCCc1cn(Cc2ccc(Cl)cc2)c(=O)c(NC(=O)N[C@@H](CC(=O)O)c2cccc(OCC)c2)c1O | 0.03 | – | –
3 | Cc1ccc([C@H](CC(=O)O)NC(=O)Nc2c(NC(=O)NC(C)(C)C)ccn(Cc3ccccc3Cl)c2=O)cc1 [(3S)-3-[({[4-{[(tert-butylamino)carbonyl]amino}-1-(2-chlorobenzyl)-2-oxo-1,2-dihydropyridin-3-yl]amino}carbonyl)amino]-3-(4-methylphenyl)propanoic acid] | 0.01 | – | –
4 | O=C(O)C[C@H](NC(=O)Nc1c(O)ccn(Cc2ccccc2Cl)c1=O)c1ccccn1 | – | – | IC50 (Table 6, 30 minutes at 37° C.): 0.15 µM
5 | Cc1ccc([C@H](CC(=O)O)NC(=O)Nc2c(O)c(C)cn([C@H](C)c3ccccc3)c2=O)cc1 | 4 | – | –
6 | CCOc1cccc(Cl)c1Cn1cc(C)c(O)c(NC(=O)N[C@@H](CC(=O)O)c2ccc3c(ccn3C)c2)c1=O [(3S)-3-[({[1-(2-chloro-6-ethoxybenzyl)-4-hydroxy-5-methyl-2-oxo-1,2-dihydropyridin-3-yl]amino}carbonyl)amino]-3-(1-methyl-1H-indol-5-yl)propanoic acid] | – | 0.003 | –
7 | Cc1cn(Cc2ccccc2Cl)c(=O)c(NC(=O)N[C@@H](CC(=O)O)c2ccc3c(c2)CCC3)c1O | – | 0.018 | –
8 | Cc1ccc([C@H](CC(=O)O)NC(=O)Nc2c(N)cc(C)n(Cc3ccccc3Cl)c2=O)cc1 [(3S)-3-{[({4-amino-1-[(2-chlorophenyl)methyl]-6-methyl-2-oxo-1,2-dihydro-3-pyridinyl}amino)carbonyl]amino}-3-(4-methylphenyl)propanoic acid] | – | – | IC50 (Table 3, 30 minutes at 37° C.): 0.01 µM
9 | CCCOc1ccc([C@H](CC(=O)O)NC(=O)Nc2c(O)ccn(Cc3ccccc3Cl)c2=O)cc1OCCC [(3S)-3-[({[1-(2-chlorobenzyl)-4-hydroxy-2-oxo-1,2-dihydropyridin-3-yl]amino}carbonyl)amino]-3-(3,4-dipropoxyphenyl)propanoic acid] | 0.003 | – | –
10 | Cc1ccc([C@H](CC(=O)O)NC(=O)Nc2c(F)ccn(Cc3ccccc3Cl)c2=O)cc1 | – | – | IC50 (Table 3, 30 minutes at 37° C.): 0.015 µM
11 | CCCOc1cccc([C@H](CC(=O)O)NC(=O)Nc2c(O)c3c(n(Cc4ccccc4Cl)c2=O)CCC3)c1 | – | 0.015 | –
12 | Cc1ccc([C@H](CC(=O)O)NC(=O)Nc2c(O)c(C)nn(Cc3ccccc3Cl)c2=O)cc1 | – | – | IC50 (Table 6, 30 minutes at 37° C.): 0.018 µM
13 | Cc1ccc([C@H](CC(=O)O)NC(=O)Nc2c(NC(C)(C)C)ccn(Cc3ccccc3Cl)c2=O)cc1 [(3S)-3-{[({1-[(2-chlorophenyl)methyl]-4-[(1,1-dimethylethyl)amino]-2-oxo-1,2-dihydro-3-pyridinyl}amino)carbonyl]amino}-3-(4-methylphenyl)propanoic acid] | – | – | IC50 (Table 3, 30 minutes at 37° C.): 0.003 µM
14 | CCOc1cccc(Cl)c1Cn1nc(C)c(O)c(NC(=O)N[C@@H](CC(=O)O)c2ccc(C)cc2)c1=O | – | 0.007 | –
15 | Cc1ccc([C@H](CC(=O)O)NC(=O)Nc2c(O)ccn(Cc3ccc(Cl)c(Cl)c3)c2=O)cc1 | 0.045 | – | –
16 | CCOc1cccc([C@H](CC(=O)O)NC(=O)Nc2c(O)c(C)c(C)n(Cc3c(Cl)cccc3OCC)c2=O)c1 | – | 0.004 | –
17 | Cc1ccc([C@H](CC(=O)O)NC(=O)Nc2c(O)ccn(Cc3cccc(Cl)c3Cl)c2=O)cc1 | 0.13 | – | –
18 | CCOc1cccc([C@H](CC(=O)O)NC(=O)Nc2c(O)c3c(n(Cc4c(Cl)cccc4OCCOC)c2=O)CCC3)c1 | – | 0.004 | –
19 | CCCc1cn(Cc2c(Cl)cccc2OCC)c(=O)c(NC(=O)N[C@@H](CC(=O)O)c2ccc(C)cc2)c1O | – | 0.02 | –
20 | Cc1cn(Cc2c(C)cccc2Cl)c(=O)c(NC(=O)NC(CC(=O)O)c2ccc(S(C)(=O)=O)cc2)c1O (centres unmarked) | – | 0.043 | –
21 | COc1cc(C)c([C@H](CC(=O)O)NC(=O)Nc2c(O)ccn(Cc3ccccc3Cl)c2=O)cc1C | 0.08 | – | –

Row | Compound | IC50 [1] [µM] | IC50 [2] [µM] | other results
22 | Cc1ccc([C@H](CC(=O)O)NC(=O)Nc2c(O)c(C)cn(Cc3ccc(Cl)cc3)c2=O)cc1 | 0.02 | – | –
23 | O=C(O)C[C@H](NC(=O)Nc1c(O)ccn(Cc2ccccc2Cl)c1=O)c1ccccc1 [(3S)-3-{[({1-[(2-chlorophenyl)methyl]-4-hydroxy-2-oxo-1,2-dihydro-3-pyridinyl}amino)carbonyl]amino}-3-phenylpropanoic acid] | – | – | IC50 (Table 3, 30 minutes at 37° C.): 0.01 µM
24 | O=C(O)C[C@H](NC(=O)Nc1c(O)c2c(n(Cc3ccccc3Cl)c1=O)CCC2)c1cccc(OC(F)F)c1 [(3S)-3-{[({1-[(2-chlorophenyl)methyl]-4-hydroxy-2-oxo-2,5,6,7-tetrahydro-1H-cyclopenta[b]pyridin-3-yl}amino)carbonyl]amino}-3-{3-[(difluoromethyl)oxy]phenyl}propanoic acid] | – | 0.005 | –
25 | Cc1cccc(Cl)c1Cn1c2c(c(O)c(NC(=O)N[C@@H](CC(=O)O)c3cccc(OCC4CC4)c3)c1=O)CCC2 | – | 0.01 | –
26 | Cc1ccc([C@H](CC(=O)O)NC(=O)Nc2c(NCc3ccccn3)ccn(Cc3ccccc3Cl)c2=O)cc1 | – | – | IC50 (Table 3, 30 minutes at 37° C.): 0.015 µM
27 | CCCCOc1cccc([C@H](CC(=O)O)NC(=O)Nc2c(O)ccn(Cc3ccccc3Cl)c2=O)c1 [(3S)-3-(3-butoxyphenyl)-3-[({[1-(2-chlorobenzyl)-4-hydroxy-2-oxo-1,2-dihydropyridin-3-yl]amino}carbonyl)amino]propanoic acid] | 0.005 | – | –
28 | CN(c1cccc([C@H](CC(=O)O)NC(=O)Nc2c(O)c3c(n(Cc4ccccc4Cl)c2=O)CCC3)c1)S(C)(=O)=O [(3S)-3-{[({1-[(2-chlorophenyl)methyl]-4-hydroxy-2-oxo-2,5,6,7-tetrahydro-1H-cyclopenta[b]pyridin-3-yl}amino)carbonyl]amino}-3-{3-[methyl(methylsulfonyl)amino]phenyl}propanoic acid] | – | 0.0016 | –
29 | Cc1cn(Cc2c(C)cccc2Cl)c(=O)c(NC(=O)N[C@@H](CC(=O)O)c2ccc3c(ccn3C)c2)c1O | – | 0.004 | –
30 | CCOc1cccc([C@H](CC(=O)O)NC(=O)Nc2c(O)c(C)cn(Cc3c(C)cccc3Cl)c2=O)c1 | – | – | IC50 (Table 6, 30 minutes at 37° C.): 0.004 µM
31 | Cc1ccc([C@H](CC(=O)O)NC(=O)Nc2c(O)ccn(Cc3ccccc3C)c2=O)cc1 | 0.02 | – | –
32 | CC(C)Oc1cc([C@H](CC(=O)O)NC(=O)Nc2c(O)c3c(n(Cc4ccccc4Cl)c2=O)CCC3)ccc1Cl [(3S)-3-[({[1-(2-chlorobenzyl)-4-hydroxy-2-oxo-2,5,6,7-tetrahydro-1H-cyclopenta[b]pyridin-3-yl]amino}carbonyl)amino]-3-(4-chloro-3-isopropoxyphenyl)propanoic acid] | – | 0.038 | –
33 | Cc1cn(Cc2c(C)cccc2Cl)c(=O)c(NC(=O)N[C@@H](CC(=O)O)c2ccc3c(c2)CCO3)c1O | – | 0.005 | –
34 | CCCCOc1cccc([C@H](CC(=O)O)NC(=O)Nc2c(O)c3c(n(Cc4ccccc4Cl)c2=O)CCC3)c1 | – | – | IC50 (Table 6, 30 minutes at 37° C.): 0.02 µM
35 | Cc1ccc(C(CC(=O)O)NC(=O)Nc2c(O)ccn(Cc3ccccc3Cl)c2=O)o1 (centres unmarked) | 0.025 | – | –
36 | Cc1ccc([C@H](CC(=O)O)NC(=O)Nc2c(O)ccn(Cc3cc(F)ccc3F)c2=O)cc1 | 0.015 | – | –
37 | O=C(Nc1cccn(Cc2ccccc2Cl)c1=O)N[C@@H](C(=O)O)c1ccccc1 | – | – | IC50 (Table 4, 30 minutes at 37° C.): 80 µM
38 | COc1cc([C@H](CC(=O)O)NC(=O)Nc2c(O)c(C)c(C)n(Cc3ccccc3Cl)c2=O)ccc1C | 0.015 | – | –
39 | Cc1ccc([C@H](CC(=O)O)NC(=O)Nc2c(O)ccn(Cc3cccc(S(C)(=O)=O)c3)c2=O)cc1 | – | – | IC50 (Table 6, 30 minutes at 37° C.): 0.025 µM
40 | Cc1ccc([C@H](CC(=O)O)NC(=O)Nc2cccn(Cc3cc(O)ccc3Cl)c2=O)cc1 | 0.25 | – | –
41 | O=C(O)C[C@H](NC(=O)Nc1c(O)c2c(n(Cc3ccccc3Cl)c1=O)CCC2)c1cccc(-c2ccccc2)c1 | – | 0.017 | –
